According to PubChem BioAssay (NCI):
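GI50 = concentration required for 50% inhibition of growth. TGI is the concentration that stops growth completely.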

Experiments:
Test in all cases: DTP human tumour cell line panel, 384-well format
MDA-MB-231 breast = tested on: MDA-MB-231 breast
UACC-62 melanoma = tested on: UACC-62 melanoma
SF-268 CNS = tested on: SF-268 CNS
M14 melanoma = tested on: M14 melanoma
CAKI-1 renal = tested on: CAKI-1 renal
HL-60(TB) leukemia = tested on: HL-60(TB) leukemia
NCI-H23 lung = tested on: NCI-H23 lung
DU-145 prostate = tested on: DU-145 prostate
786-0 renal = tested on: 786-0 renal
A498 renal = tested on: A498 renal
OVCAR-5 ovarian = tested on: OVCAR-5 ovarian
SR leukemia = tested on: SR leukemia
CCRF-CEM leukemia = tested on: CCRF-CEM leukemia
SK-MEL-5 melanoma = tested on: SK-MEL-5 melanoma
NCI-H460 NSCLC = tested on: NCI-H460 NSCLC
RXF 393 renal = tested on: RXF 393 renal
K-562 leukemia = tested on: K-562 leukemia
BT-549 breast = tested on: BT-549 breast
SF-295 CNS = tested on: SF-295 CNS
IGROV1 ovarian = tested on: IGROV1 ovarian
COLO 205 colon = tested on: COLO 205 colon
NCI-H322M lung = tested on: NCI-H322M lung
TK-10 renal = tested on: TK-10 renal
SF-539 CNS = tested on: SF-539 CNS
PC-3 prostate = tested on: PC-3 prostate
NCI-H226 lung = tested on: NCI-H226 lung
NCI/ADR-RES ovarian = tested on: NCI/ADR-RES ovarian
MCF7 breast = tested on: MCF7 breast
SK-MEL-28 melanoma = tested on: SK-MEL-28 melanoma

## C#Cc1c(F)ccc2cc(O)cc(-c3ncc4c(N5CC6CCC(C5)N6)nc(OC[C@@]56CCCN5C[C@H](F)C6)nc4c3F)c12
MDA-MB-231 breast
  TGI: 4 µM
UACC-62 melanoma
  GI50: 1.78 µM
  TGI: 3.18 µM
SF-268 CNS
  GI50: 1.99 µM
  TGI: 4.34 µM
M14 melanoma
  GI50: 1.78 µM
  TGI: 3.27 µM
CAKI-1 renal
  GI50: 10.9 µM
  TGI: 22.9 µM
HL-60(TB) leukemia
  GI50: 1.87 µM
  TGI: 3.28 µM
NCI-H23 lung
  GI50: 0.568 µM
  TGI: 3.51 µM
DU-145 prostate
  GI50: 13.7 µM
  TGI: 26.6 µM
786-0 renal
  GI50: 12.4 µM
  TGI: 24.9 µM
A498 renal
  GI50: 10.5 µM
  TGI: 22.4 µM
OVCAR-5 ovarian
  GI50: 3.14 µM
  TGI: 10.5 µM
SR leukemia
  GI50: 1.06 µM
  TGI: 2.25 µM
CCRF-CEM leukemia
  GI50: 1.25 µM
  TGI: 2.51 µM
SK-MEL-5 melanoma
  GI50: 1.67 µM
  TGI: 3.66 µM
NCI-H460 NSCLC
  GI50: 1.51 µM
  TGI: 5.97 µM
RXF 393 renal
  GI50: 2.41 µM
  TGI: 6.19 µM
K-562 leukemia
  GI50: 3.58 µM
  TGI: 9.9 µM
BT-549 breast
  GI50: 1.86 µM
  TGI: 3.47 µM
SF-295 CNS
  GI50: 17.7 µM
  TGI: 31.6 µM
IGROV1 ovarian
  GI50: 12.4 µM
  TGI: 24.9 µM
COLO 205 colon
  GI50: 2.02 µM
  TGI: 3.94 µM
NCI-H322M lung
  GI50: 6.12 µM
  TGI: 19.3 µM
TK-10 renal
  GI50: 17.3 µM
  TGI: 31.1 µM
SF-539 CNS
  GI50: 1.92 µM
  TGI: 3.52 µM
PC-3 prostate
  GI50: 9.06 µM
  TGI: 21 µM
NCI-H226 lung
  GI50: 10.7 µM
  TGI: 22.6 µM
NCI/ADR-RES ovarian
  GI50: 85.7 µM
  TGI: > 100 µM
MCF7 breast
  GI50: 2.36 µM
  TGI: 5.28 µM
SK-MEL-28 melanoma
  GI50: 1.87 µM
  TGI: 3.29 µM
